Assay results from the Kinase Knowledgebase extract (Sharma et al. 2016).

Biological target: EGFR (UniProt P00533)
Sequence (P00533 whole entry, looked up): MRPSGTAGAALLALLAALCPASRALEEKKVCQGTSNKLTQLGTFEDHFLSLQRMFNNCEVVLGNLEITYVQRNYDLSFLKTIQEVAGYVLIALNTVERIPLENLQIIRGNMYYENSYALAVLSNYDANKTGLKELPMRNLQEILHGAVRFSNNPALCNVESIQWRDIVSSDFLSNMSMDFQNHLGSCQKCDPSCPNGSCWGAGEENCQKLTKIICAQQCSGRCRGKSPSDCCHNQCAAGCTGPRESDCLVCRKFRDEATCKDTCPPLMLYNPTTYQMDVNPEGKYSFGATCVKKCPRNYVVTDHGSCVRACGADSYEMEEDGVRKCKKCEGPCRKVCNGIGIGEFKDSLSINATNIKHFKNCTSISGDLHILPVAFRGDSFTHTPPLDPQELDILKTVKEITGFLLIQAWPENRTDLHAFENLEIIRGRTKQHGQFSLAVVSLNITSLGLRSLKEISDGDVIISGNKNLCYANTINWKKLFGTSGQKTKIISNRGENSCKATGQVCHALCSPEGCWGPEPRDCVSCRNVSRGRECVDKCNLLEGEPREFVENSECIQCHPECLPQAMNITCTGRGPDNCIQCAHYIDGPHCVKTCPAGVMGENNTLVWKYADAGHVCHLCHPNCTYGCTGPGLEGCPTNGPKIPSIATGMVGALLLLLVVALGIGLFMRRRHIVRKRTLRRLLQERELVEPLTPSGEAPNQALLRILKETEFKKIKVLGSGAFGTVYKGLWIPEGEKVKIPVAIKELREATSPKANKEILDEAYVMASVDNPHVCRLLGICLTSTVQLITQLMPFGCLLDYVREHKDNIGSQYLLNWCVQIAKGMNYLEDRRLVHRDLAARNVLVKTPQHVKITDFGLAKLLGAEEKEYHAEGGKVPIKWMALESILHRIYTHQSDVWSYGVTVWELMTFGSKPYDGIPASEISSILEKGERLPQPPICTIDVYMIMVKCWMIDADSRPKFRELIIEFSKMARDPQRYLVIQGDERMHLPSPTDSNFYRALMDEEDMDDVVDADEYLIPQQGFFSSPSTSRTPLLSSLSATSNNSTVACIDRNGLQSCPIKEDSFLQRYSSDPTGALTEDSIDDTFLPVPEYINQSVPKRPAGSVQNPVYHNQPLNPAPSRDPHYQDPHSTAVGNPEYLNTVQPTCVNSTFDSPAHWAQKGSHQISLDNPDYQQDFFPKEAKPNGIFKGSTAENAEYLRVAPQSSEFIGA

IC50 [µM]	SMILES
> 50	Cc1ccc2ncnc(Nc3ccccc3Cl)c2c1
> 50	Cc1ccc2ncnc(Nc3cccc(C(N)=O)c3)c2c1
3.4	COc1cc2nc(N3CCN(C)CC3)nc(Nc3cccc(Cl)c3)c2cc1OC
> 50	Cc1ccc2ncnc(Nc3ccccc3C)c2c1
0.0017	COc1cc2ncnc(Nc3cccc(I)c3)c2cc1OC
0.33	Cc1ccc2ncnc(Nc3cccc(Br)c3)c2c1
0.037	Cc1ccc2ncnc(Nc3cccc(Cl)c3)c2c1
0.024	COc1cc2ncnc(Nc3cc(Cl)cc(Cl)c3)c2cc1OC
> 50	Clc1ccccc1Nc1ncnc2ccccc12
3.4	COc1cc2nc(Nc3ccc(C)cc3)nc(Nc3ccc(C)cc3)c2cc1OC
> 50	COc1cc2ncnc(Nc3ccccc3)c2cc1OC
1	COc1cccc(Nc2ncnc3cc(OC)c(OC)cc23)c1
20	COc1cc2nc(Cl)nc(Nc3cccc(Cl)c3)c2cc1OC
> 50	Cc1ccc2ncnc(Nc3cccc(C(=O)O)c3)c2c1
14	Cc1ccc2ncnc(Nc3ccc(Br)cc3)c2c1
> 50	Cc1ccc2ncnc(Nc3ccccc3)c2c1
> 50	Cc1ccc2ncnc(Nc3ccc(O)cc3)c2c1
0.86	Cc1ccc2ncnc(Nc3cccc(C(F)(F)F)c3)c2c1
> 50	Cc1ccc(Nc2ncnc3ccc(C)cc23)cc1
0.205	Clc1cccc(Nc2ncnc3ccccc23)c1
> 50	Cc1ccc2ncnc(Nc3ccc(C#N)cc3)c2c1
21	Cc1ccc2ncnc(Nc3ccc4c(c3)OCO4)c2c1
10	COc1ccc(Nc2ncnc3ccc(C)cc23)cc1
> 50	Cc1cccc2c(Nc3cccc(Cl)c3)ncnc12
> 50	COc1cc2c(Nc3cccc(Cl)c3)ncnc2c(OC)c1OC
> 50	Cc1ccc2ncnc(Nc3ccccc3O)c2c1
> 45	Cc1ccc2ncnc(Nc3ccc(C)c(C)c3)c2c1
4.9	COc1cc2nc(Cl)nc(Nc3ccc(C)cc3)c2cc1OC
